Laboratory results as given in patent publication US5849701A, “Peptide inhibitors of fibronectin and related collagen-binding proteins” (The United States of America as represented by the …, priority 1995, dated 1998).
Each block holds one molecule with its values, some of them ahead of it. Where no end group is shown, it is not given here.

How the values were obtained:
[1] = target: T1, fibronectin (Homo sapiens, UniProt P02751); assay: Direct binding of 125I-fibronectin to immobilized peptides
T1 sequence (P02751 32-2477): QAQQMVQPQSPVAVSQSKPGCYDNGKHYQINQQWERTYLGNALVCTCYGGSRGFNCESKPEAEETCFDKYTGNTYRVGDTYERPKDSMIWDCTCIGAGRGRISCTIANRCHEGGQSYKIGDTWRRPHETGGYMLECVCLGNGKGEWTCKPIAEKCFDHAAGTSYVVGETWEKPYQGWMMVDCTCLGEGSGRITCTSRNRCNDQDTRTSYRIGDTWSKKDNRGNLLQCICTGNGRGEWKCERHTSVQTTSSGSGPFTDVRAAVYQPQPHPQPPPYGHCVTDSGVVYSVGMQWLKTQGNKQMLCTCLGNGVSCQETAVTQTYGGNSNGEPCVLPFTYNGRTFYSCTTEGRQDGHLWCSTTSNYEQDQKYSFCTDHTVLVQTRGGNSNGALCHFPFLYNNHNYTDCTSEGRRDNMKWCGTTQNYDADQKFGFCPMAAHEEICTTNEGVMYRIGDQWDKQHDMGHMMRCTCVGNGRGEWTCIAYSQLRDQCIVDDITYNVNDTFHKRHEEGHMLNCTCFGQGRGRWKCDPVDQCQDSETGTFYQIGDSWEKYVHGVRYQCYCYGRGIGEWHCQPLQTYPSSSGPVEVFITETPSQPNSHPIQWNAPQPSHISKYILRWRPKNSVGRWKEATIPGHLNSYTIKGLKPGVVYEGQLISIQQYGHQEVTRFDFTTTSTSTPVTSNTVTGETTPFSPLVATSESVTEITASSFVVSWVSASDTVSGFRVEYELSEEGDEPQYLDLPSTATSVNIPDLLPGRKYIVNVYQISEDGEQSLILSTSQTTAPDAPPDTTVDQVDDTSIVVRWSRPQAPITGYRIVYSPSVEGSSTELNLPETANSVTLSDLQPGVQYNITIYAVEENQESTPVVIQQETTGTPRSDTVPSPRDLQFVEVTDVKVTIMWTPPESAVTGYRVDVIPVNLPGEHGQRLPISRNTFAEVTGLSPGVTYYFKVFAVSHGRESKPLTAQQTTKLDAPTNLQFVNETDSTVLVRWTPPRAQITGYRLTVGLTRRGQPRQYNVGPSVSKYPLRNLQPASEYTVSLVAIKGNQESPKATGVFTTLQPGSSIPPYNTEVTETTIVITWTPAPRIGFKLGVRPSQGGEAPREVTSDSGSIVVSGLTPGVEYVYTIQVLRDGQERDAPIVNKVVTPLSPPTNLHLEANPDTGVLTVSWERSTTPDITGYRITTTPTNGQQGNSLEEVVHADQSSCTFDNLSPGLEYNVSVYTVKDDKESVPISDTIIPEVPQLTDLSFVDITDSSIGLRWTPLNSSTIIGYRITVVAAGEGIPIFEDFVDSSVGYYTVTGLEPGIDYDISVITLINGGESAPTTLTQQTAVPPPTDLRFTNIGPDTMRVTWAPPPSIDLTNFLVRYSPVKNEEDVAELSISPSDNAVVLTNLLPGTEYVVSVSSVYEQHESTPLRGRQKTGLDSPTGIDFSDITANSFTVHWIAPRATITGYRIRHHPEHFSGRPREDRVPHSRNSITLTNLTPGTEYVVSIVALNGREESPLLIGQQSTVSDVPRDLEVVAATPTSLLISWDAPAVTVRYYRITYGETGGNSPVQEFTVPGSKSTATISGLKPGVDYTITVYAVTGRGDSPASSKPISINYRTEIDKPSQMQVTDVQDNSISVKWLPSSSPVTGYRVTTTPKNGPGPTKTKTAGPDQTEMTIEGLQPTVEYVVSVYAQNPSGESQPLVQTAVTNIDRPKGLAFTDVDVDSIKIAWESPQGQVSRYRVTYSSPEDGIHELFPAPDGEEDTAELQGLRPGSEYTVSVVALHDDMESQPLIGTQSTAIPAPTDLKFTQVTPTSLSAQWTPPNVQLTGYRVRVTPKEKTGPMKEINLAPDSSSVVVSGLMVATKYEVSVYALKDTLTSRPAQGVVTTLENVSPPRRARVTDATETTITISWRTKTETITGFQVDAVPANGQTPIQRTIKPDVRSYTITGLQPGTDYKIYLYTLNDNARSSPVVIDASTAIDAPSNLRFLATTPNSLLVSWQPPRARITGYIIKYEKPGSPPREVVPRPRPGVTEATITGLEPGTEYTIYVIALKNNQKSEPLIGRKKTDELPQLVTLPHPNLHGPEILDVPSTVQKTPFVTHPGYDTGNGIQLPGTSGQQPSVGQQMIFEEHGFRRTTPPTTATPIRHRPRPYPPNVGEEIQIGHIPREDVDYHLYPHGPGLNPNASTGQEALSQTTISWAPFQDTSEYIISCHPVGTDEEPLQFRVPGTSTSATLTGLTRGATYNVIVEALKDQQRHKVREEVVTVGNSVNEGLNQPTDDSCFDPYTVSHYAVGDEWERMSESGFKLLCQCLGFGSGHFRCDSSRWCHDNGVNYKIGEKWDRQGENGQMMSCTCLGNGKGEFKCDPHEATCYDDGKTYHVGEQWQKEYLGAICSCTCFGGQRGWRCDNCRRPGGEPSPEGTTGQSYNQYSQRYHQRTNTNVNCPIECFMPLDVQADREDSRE
Description: Fibronectin was isolated from platelet-depleted plasma as described (Ariyama, et al. 1985, J. Biol. Chem. 260:4492-4500) and iodinated using Iodogen (Pierce Chemical Co., Rockford, Ill.) as described (Roberts, et al. 1987, J. Cell. Biol. 104:131-139).
Direct binding of the fibronectin to immobilized peptides was carried out by first absorbing the peptides on polyvinyl chloride microtiter wells for 3 hours at 25° C. at the indicated concentrations. Unbound peptides were removed by washing and wells were incubated for 30 minutes in tris-BSA (50 mM tris-HCl, pH7-8, 110 mm NaCl, 1% BSA) (Sigma fatty acid and globulin-free, 0.1% NaN3). The wells were washed and incubated with […] of 0.5 μg/ml ^125 I-fibronectin for 2 hours at 25° C. The wells were washed five times with Dulbecco's phosphate buffered saline and cut from the plate and bound radioactivity was counted.
The peptides listed in Table 1 were synthesized as described above and absorbed to microtiter wells. […] This peptide sequence is located in the second type I repeat of the human-ThbsI gene.

[2] = target: T1, fibronectin; assay: Inhibition of 125I-fibronectin binding to immobilized peptide GlyGlyTrpSerHisTrp; conditions: wells coated with 50 μg/ml peptide; 0.5 μg/ml 125I-fibronectin
Description: Microtiter plate wells were coated with 50 μg/ml of peptide GlyGlyTrpSerHisTrp (SEQ ID NO: 1) as in Example 1. Binding of ^125 I-fibronectin (0.5 μg/ml) to bound peptide was determined in the presence of increasing amounts of the peptides: FIG. 2A: the peptides are GlyGlyTrpSerHisTrp (SEQ ID NO: 1) (.circle-solid.); GlyGlyTrpSerLysTrp (SEQ ID NO: 9) (.tangle-solidup.); GlyGlyTyrSerHisTrp (SEQ ID NO: 10) (.box-solid.) and GlyGlyTrpSerHisTyr (SEQ ID NO: 11) (.tangle-soliddn.); FIG. 2B: GlyGlyTrpSerHisTrp (SEQ ID NO: 1) (-); GlyGlyTrpThrHisTrp (SEQ ID NO: 12) (.tangle-solidup.); GlyGlyTrpAlaHisTrp (SEQ ID NO: 13) (.box-solid.); GlyTrpSerHisTrp (SEQ ID NO: 14) (+); AlaAlaTrpSerHisTrp (SEQ ID NO: 21) (.tangle-soliddn.); and AspGlyTrpSerHisTrp (SEQ ID NO: 22) (.quadrature.).
Binding of ^125 1-fibronectin (0.5 μg/ml) to microtiter plate wells coated with 50 μg/ml of peptide GlyGlyTrpSerHisTrp (SEQ ID NO: 1) was determined in the presence of synthetic peptide GlyGlyTrpSerHisTrp (SEQ ID NO: 1), fibronectin or thrombospondin.
Microtiter plates were coated with 50 μg/ml of synthetic peptide GlyGlyTrpSerHisTrp (SEQ ID NO: 1) as described in Example 1. Binding of 125I-fibronectin (0.5 μg/ml) to the bound peptide was determined in the presence of proteolytic fragments of fibronectin, which were obtained from Telios Pharmaceuticals, Inc. San Diego, Calif. The proteolytic fragments included intact fibronectin; 30 kDa gelatin-binding domain; 33 kDa recombinant cell binding domain; 28 kDa recombinant cell binding domain and transferrin.

[3] = target: T1, fibronectin; assay: Inhibition of fibronectin binding to immobilized native type I collagen
Description: (§1) Wells of a microtiter plate were incubated for 3 hours at 25° C. with […] gelatin in Dulbecco's PBS. The wells were emptied and incubated with Dulbecco's PBS containing 1% BSA for 30 minutes. The wells were emptied and incubated with 0.5 μg/ml ^125 I-fibronectin in the presence of peptide GlyGlyTrpSerHisTrp (SEQ ID NO: 1) (.circle-solid.); GlyGlyTrpSerLysTrp (SEQ ID NO: 9) (.tangle-solidup.); GlyGlyTyrSerHisTrp (SEQ ID NO: 10) (.box-solid.); or GlyGlyTrpSerHisTyr (SEQ ID NO: 11) (.tangle-soliddn.) for 2 hours at 25° C. The wells were washed 4 times with PBS, cut from the plate and the bound radioactivity was counted.
A ligand binding assay as described in Example 5 was performed except that microtiter plates were coated with immobilized native type I collagen in place of gelatin.

[4] = target: T1, fibronectin; assay: Inhibition of 125I-fibronectin binding to gelatin; conditions: 0.5 μg/ml 125I-fibronectin, 2 hours at 25° C.
Description: as §1

IC50 for competition of 125I-fibronectin binding to peptide GlyGlyTrpSerHisTrp [2]: > 200 µg/mL
Molecule: transferrin [reference compound]

inhibition of fibronectin binding to type I collagen (in words) [3]: inactive
Molecule: AAWSHW [AlaAlaTrpSerHisTrp]

inhibition of fibronectin binding to type I collagen (in words) [3]: inactive
Molecule: WSHWSP [Peptide 292, WSHWSP]

binding of fibronectin to peptide (in words) [1]: inactive
Molecule: DGWSPW [Peptide 317, DGWSPW]

IC50 [2]: 27 µM | IC50 [3]: 40 µM
Molecule: GGWSHW [Peptide 300, GGWSHW]

inhibition of fibronectin binding to immobilized peptide GlyGlyTrpSerHisTrp (in words) [2]: inactive | inhibition of fibronectin binding to type I collagen (in words) [3]: inactive | inhibition of fibronectin binding to gelatin (in words) [4]: inactive
Molecule: GGWSHY [GlyGlyTrpSerHisTyr]

inhibition of fibronectin binding to immobilized peptide GlyGlyTrpSerHisTrp (in words) [2]: inactive | inhibition of fibronectin binding to type I collagen (in words) [3]: inactive | inhibition of fibronectin binding to gelatin (in words) [4]: inactive
Molecule: GGYSHW [GlyGlyTyrSerHisTrp]

inhibition of fibronectin binding to immobilized peptide GlyGlyTrpSerHisTrp (in words) [2]: competed
Molecule: fibronectin

IC50 for competition of 125I-fibronectin binding to peptide GlyGlyTrpSerHisTrp [2]: > 200 µg/mL
B1: ovalbumin: control protein (protein, UniProt P01012 2-386, looked up)
Ovalbumin: GSIGAASMEFCFDVFKELKVHHANENIFYCPIAIMSALAMVYLGAKDSTRTQINKVVRFDKLPGFGDSIEAQCGTSVNVHSSLRDILNQITKPNDVYSFSLASRLYAEERYPILPEYLQCVKELYRGGLEPINFQTAADQARELINSWVESQTNGIIRNVLQPSSVDSQTAMVLVNAIVFKGLWEKAFKDEDTQAMPFRVTEQESKPVQMMYQIGLFRVASMASEKMKILELPFASGTMSMLVLLPDEVSGLEQLESIINFEKLTEWTSSNVMEERKIKVYLPRMKMEEKYNLTSVLMAMGITDVFSSSANLSGISSAESLKISQAVHAAHAEINEAGREVVGSAEAGVDAASVSEEFRADHPFLFCIKHIATNAVLFFGRCVSP

Second part, the molecule before the results:

Molecule: GGWGPW [Peptide 318, GGWGPW]
binding of fibronectin to peptide (in words) [1]: inactive

Molecule: thrombospondin: Human platelet thrombospondin, purified
inhibition of fibronectin binding to immobilized peptide GlyGlyTrpSerHisTrp (in words) [2]: competed

Molecule: DGWSHW [AspGlyTrpSerHisTrp]
inhibition of fibronectin binding to type I collagen (in words) [3]: inactive

Molecule: GGWTHW [GlyGlyTrpThrHisTrp]
inhibition of fibronectin binding to type I collagen (in words) [3]: inactive

Molecule: fetuin: control protein [reference compound]
IC50 for competition of 125I-fibronectin binding to peptide GlyGlyTrpSerHisTrp [2]: > 200 µg/mL

Molecule: GGWSKW [GlyGlyTrpSerLysTrp]
inhibition of fibronectin binding to immobilized peptide GlyGlyTrpSerHisTrp (in words) [2]: inactive | inhibition of fibronectin binding to type I collagen (in words) [3]: inactive | inhibition of fibronectin binding to gelatin (in words) [4]: inactive
